{"source": "patent US4386103A", "about": "“Dichloroamino acid derivatives useful as potent germicidal and fungicidal agents” (Merck & Co., Inc., priority 1981, dated 1983)", "format_in_all_cases": "cell-based", "key": {"Salmonella typhimurium": {"system": "Salmonella typhimurium", "experiment": "Contact germicidal screen, Salmonella typhimurium ATCC No. 13311", "method": "(§1) The organisms used in the contact germicidal screen are all maintained as stock cultures on nutrient agar […] 4° C. They are transferred and biochemically diagnosed monthly. The five organisms used are: The media used are: […] Overnight cultures of the test organisms are grown in tryptose phosphate broth. After 15-16 hours, the cultures are centrifuged at […] for 15 minutes, and the supernatant replaced with fresh warm (37° C.) media. After two hours of incubation, the absorbance of the culture at 650 nm is determined and diluted with nutrient broth to 1×10^7 colony forming units per ml (using a previous determined standard curve: colony forming units/ml vs. absorbance at 650). The diluted cultures are maintained at 4°-8° C. throughout the screen. The compounds are weighed into sterile 100 ml volumetric flasks, and immediately before screening dissolved in one of the following buffers: 0.1 M NaOAc pH 4.6 or 0.1 M NaH2 PO4 pH 7.0. If solubility poses a problem, 10-30% methanol is used to effect solution. Two denaturing agents are also tested: […] Horse Serum restored with 100 ml distilled water and 10% Trition×100. When used, 2.5 ml of the denaturing agent is mixed with 2.5 ml of double strength test solution thirty minutes before the bacterial suspension is added. The screen is initiated when 0.2 ml of the bacterial suspension is added to 5.0 ml of the test solution contained in a sterile 25 ml glass stoppered flask. At intervals of 0.5, 2.5, 5.0, 10.0 and 15.0 minutes, a loopful of the inoculated test solution is subcultured into 5 ml of sterile nutrient broth and mixed with a vortex, the high dilution serving to stop the action of the compound. All of the subculture tubes are incubated at 37° C. and checked for signs of growth by turbidity at 1, 3, 5 and 7 days. The earliest subculture time at which no growth is present is considered the endpoint and is recorded as the sterilization time. An aliquot of 0.2 ml of the diluted culture is transferred to 5 ml of buffer to simulate 0.2 ml in 5 ml of test solution. (a) Purity: A loopful of the inoculated buffer is streaked onto nutrient agar to check colony morphology and lack of contaminants. (b) Viability: A loopful of the inoculated buffer is subcultured to 5 ml of nutrient broth as in the screen and incubated at 37° C. for 24 hours. (c) Dilution of the Test Solution: A loopful of the test solution is transferred to a 5 ml tube of nutrient broth, and a loopful of the inoculated buffer is transferred to the same tube of broth. […] (d) Purity of Organisms in the Test Solution: After the 15 minute subculture, a loopful of the inoculated test solution is streaked onto nutrient agar to insure that contamination has not occurred during the screen. (e) lack of Bactericidal Activity of Buffers and Other Solvents: Before a buffer or other solvent is used as a diluent, it is screened against the five organisms to insure that the buffer or solvent has no antibacterial activity itself."}, "Pseudamonas aeruginosa": {"system": "Pseudamonas aeruginosa", "experiment": "Contact germicidal screen, Pseudamonas aeruginosa ATCC No. 14502", "method": "as §1"}, "Candida albican": {"system": "Candida albican", "experiment": "Contact fungicidal screen, Candida albican", "conditions": "0.1M NaOAc pH 4.6", "method": "The organisms used in the Contact Fungicidal Screen are a dermatophyte, trychophyton mentagrophytes, frequently associated with athlete's foot; a yeast, Candida albican, causative agent of thrush and vaginitis; a phycomycete, Rhizopus oryzae, commonly known as black bread mold; an ascomycete, Aspergillus fumagatis, found in chicken droppings and causing lung infections; and another dermatophyte, Microsporum canis, which causes ringworm. These organisms are maintained as stock cultures at 4° C. on agar slants of the following composition: dextrose 2%, Neopeptone (Difco) 1%, agar 2%. Fluid medium of the same nutrient composition (without agar) was used to test the viability of the organisms after exposure to the fungicide. This medium is also known as Sabouraud's medium.\nThe Candida albican is grown in Sabouraud's liquid medium at 25°-30° C. for three days. At the end of the incubation period the cell suspension is centrifuged at 200 G and washed with sterile physiological saline (0.85% NaCl). The density of the cell suspension is determined by counting in a hemacytometer. The suspension is stored a 4° C. until it is used, at which time it is diluted with sterile physiological saline to a density of 5×10^6 cells per ml.\nThe compounds are weighed into heat sterilized 100 ml volumetric flasks and immediately before screening dissolved in 0.1 M NaOAc pH 4.6 buffer (test solutions).\nThe Aspergillus, Candida, Microsporum and Rhizopus species are screened in a slightly different manner. Basically, the procedure for the Contact Germicidal Efficiency Screen is utilized. After the test solutions are made up, 5 ml aliquots are pipetted into heat sterilized 25 ml glass stoppered erlenmeyer flasks. The screen is initiated when 0.5 ml of the 5×10^6 cell (spore) per ml suspension is added to the flask containing 5 ml of the test solution. At intervals of 0.5, 2.5, 5.0, 10.0 and 15.0 minutes, a 4 mm loopful of the inoculated test solution is subcultured into 7 mL of sterile fluid Sabouraud's medium and mixed on a vortex, the high dilution serving to stop the action of the compound. The subculture tubes are incubated at 25°-30° C. for ten days with daily observation for mycelial growth. The earliest subculture time at which no growth is present is considered the endpoint and is recorded as the sterilization time.\nTo insure the viability of the culture, a 0.5 ml aliquot of the 5×10^6 cells (spores) per ml suspension is transferred to 5 ml of the pH 4.6 buffer. A loopful of the inoculated buffer is then subcultured to 7 ml of fluid Sabouraud's medium and incubated at 25°-30° C. for ten days. To insure that the dilution of the test solution into the subculture medium does stop the action, a loopful of the test solution and a loopful of the inoculated buffer are transferred into the same subculture tube. This tube is also incubated at 25°-30° C. for ten days."}, "[1]": {"conditions": "10.0+ PPM, 0.1M NaOAc pH 4.6, screened simultaneously with four other compounds"}, "[2]": {"conditions": "300 PPM with 50% Horse Serum, 0.1M NaOAc pH 4.6"}, "[3]": {"conditions": "300 PPM with 50% Triton X100, 0.1M NaOAc pH 4.6"}, "[4]": {"conditions": "308.0 PPM, Triton X100 (10% solution):pH 4.6 buffer 1:1"}, "[5]": {"conditions": "308.0 PPM, horse serum:pH 4.6 buffer 1:1"}, "[6]": {"conditions": "1000 PPM with 50% Horse Serum, 0.1M NaOAc pH 4.6"}, "[7]": {"conditions": "1000.0 PPM, horse serum:pH 4.6 buffer 1:1"}, "[8]": {"conditions": "1012.3 PPM, 0.1M NaH2PO4 pH 7.0"}}, "data": [{"molecule": "CC(C)(CCC(=O)O)N(Cl)Cl", "note": "[(III), 4-Dichloroamino-4-methylvaleric acid]", "values": [{"measurement": "Sterilization Time", "setting": "Salmonella typhimurium; 9.6 PPM, 0.1M NaOAc pH 4.6", "result": 2.5, "unit": "min"}, {"measurement": "Sterilization Time", "setting": "Salmonella typhimurium; 9.7 PPM, 0.1M NaH2PO4 pH 7.0", "result": 15, "unit": "min"}, {"measurement": "Sterilization Time", "setting": "Salmonella typhimurium; [1]", "result": 2.5, "unit": "min"}, {"measurement": "Sterilization Time (summary)", "setting": "Salmonella typhimurium; 10 PPM, 0.1M NaOAc pH 4.6", "result": 2.5, "unit": "min"}, {"measurement": "Sterilization Time (summary)", "setting": "Salmonella typhimurium; 100 PPM, 0.1M NaOAc pH 4.6", "result": 0.5, "unit": "min"}, {"measurement": "Sterilization Time", "setting": "Salmonella typhimurium; 102.2 PPM, 0.1M NaOAc pH 4.6", "result": 0.5, "unit": "min"}, {"measurement": "Sterilization Time", "setting": "Salmonella typhimurium; 103.5 PPM, 0.1M NaH2PO4 pH 7.0", "result": 5.0, "unit": "min"}, {"measurement": "Sterilization Time (summary)", "setting": "Salmonella typhimurium; [2]", "result": 2.5, "unit": "min"}, {"measurement": "Sterilization Time (summary)", "setting": "Salmonella typhimurium; [3]", "result": 0.5, "unit": "min"}, {"measurement": "Sterilization Time", "setting": "Salmonella typhimurium; [4]", "result": 0.5, "unit": "min"}, {"measurement": "Sterilization Time", "setting": "Salmonella typhimurium; [5]", "result": 2.5, "unit": "min"}, {"measurement": "Sterilization Time (summary)", "setting": "Salmonella typhimurium; [6]", "result": 0.5, "unit": "min"}, {"measurement": "Sterilization Time (summary)", "setting": "Salmonella typhimurium; 1000 PPM, 0.1M NaOAc pH 4.6", "result": 0.5, "unit": "min"}, {"measurement": "Sterilization Time", "setting": "Salmonella typhimurium; [7]", "result": 0.5, "unit": "min"}, {"measurement": "Sterilization Time", "setting": "Salmonella typhimurium; 1007.7 PPM, 0.1M NaOAc pH 4.6", "result": 0.5, "unit": "min"}, {"measurement": "Sterilization Time", "setting": "Salmonella typhimurium; [8]", "result": 0.5, "unit": "min"}, {"measurement": "Sterilization Time", "setting": "Pseudamonas aeruginosa; 9.6 PPM, 0.1M NaOAc pH 4.6", "result": 5.0, "unit": "min"}, {"measurement": "Sterilization Time", "setting": "Pseudamonas aeruginosa; 9.7 PPM, 0.1M NaH2PO4 pH 7.0", "result": 15, "unit": "min"}, {"measurement": "Sterilization Time", "setting": "Pseudamonas aeruginosa; [1]", "result": 2.5, "unit": "min"}, {"measurement": "Sterilization Time (summary)", "setting": "Pseudamonas aeruginosa; 10 PPM, 0.1M NaOAc pH 4.6", "result": 2.5, "unit": "min"}, {"measurement": "Sterilization Time (summary)", "setting": "Pseudamonas aeruginosa; 100 PPM, 0.1M NaOAc pH 4.6", "result": 0.5, "unit": "min"}, {"measurement": "Sterilization Time", "setting": "Pseudamonas aeruginosa; 102.2 PPM, 0.1M NaOAc pH 4.6", "result": 0.5, "unit": "min"}, {"measurement": "Sterilization Time", "setting": "Pseudamonas aeruginosa; 103.5 PPM, 0.1M NaH2PO4 pH 7.0", "result": 15, "unit": "min"}, {"measurement": "Sterilization Time (summary)", "setting": "Pseudamonas aeruginosa; [2]", "result": 15, "unit": "min"}, {"measurement": "Sterilization Time (summary)", "setting": "Pseudamonas aeruginosa; [3]", "result": 2.5, "unit": "min"}, {"measurement": "Sterilization Time", "setting": "Pseudamonas aeruginosa; [4]", "result": 2.5, "unit": "min"}, {"measurement": "Sterilization Time", "setting": "Pseudamonas aeruginosa; [5]", "result": 15, "unit": "min"}, {"measurement": "Sterilization Time (summary)", "setting": "Pseudamonas aeruginosa; [6]", "result": 5.0, "unit": "min"}, {"measurement": "Sterilization Time (summary)", "setting": "Pseudamonas aeruginosa; 1000 PPM, 0.1M NaOAc pH 4.6", "result": 0.5, "unit": "min"}, {"measurement": "Sterilization Time", "setting": "Pseudamonas aeruginosa; [7]", "result": 5.0, "unit": "min"}, {"measurement": "Sterilization Time", "setting": "Pseudamonas aeruginosa; 1007.7 PPM, 0.1M NaOAc pH 4.6", "result": 0.5, "unit": "min"}, {"measurement": "Sterilization Time", "setting": "Pseudamonas aeruginosa; [8]", "result": 5.0, "unit": "min"}, {"measurement": "Sterilization Time", "setting": "Candida albican; 10 PPM", "result": 15, "unit": "min"}, {"measurement": "Sterilization Time", "setting": "Candida albican; 100 PPM", "result": 15, "unit": "min"}, {"measurement": "Sterilization Time", "setting": "Candida albican; 1000 PPM", "result": 0.5, "unit": "min"}]}]}
